Results as given in PubChem BioAssay (NCI).
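All cell lines were grown in 96-well plates and treated with compound for 48 hours. Definition used: TGI = concentration required for complete inhibition of growth.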

Columns and labels:
Assay in all cases: growth of human tumour cells (NCI), 48 h
[1] = system: HCC-2998 colon
[2] = system: MDA-MB-231 breast
[3] = system: U251 CNS
[4] = system: SNB-19 CNS
[5] = system: HOP-92 NSCLC
[6] = system: PC-3 prostate
[7] = system: UACC-257 melanoma
[8] = system: SF-295 CNS
[9] = system: SK-OV-3 ovarian
[10] = system: RPMI-8226 leukemia

SMILES	TGI [1]	TGI [2]	TGI [3]	TGI [4]	TGI [5]	TGI [6]	TGI [7]	TGI [8]	TGI [9]	TGI [10]
COC(=O)C1=C(C)NC2=C(C(=O)c3ccccc32)C1c1cn(-c2ccccc2)nc1-c1ccccc1 (stereo not given)	> 100 µM	> 100 µM	> 100 µM	> 100 µM	> 100 µM	> 100 µM	> 100 µM	> 100 µM	> 100 µM	> 100 µM
CC(=O)N(C)c1ccc(Nc2cc(C)[nH]c3ccc4ncnc4c23)cc1	22.3 µM	30.4 µM	30.6 µM	42.4 µM	14.7 µM	18 µM	26.7 µM	39.1 µM	35.8 µM	82.7 µM
CC1=CC(C)C/C=C/C2C3OC3(C)C(C)C3C(Cc4c[nH]c5ccccc45)NC(=O)C23C(=O)C=CC(=O)C1O (stereo not given)	21.7 µM	16.9 µM	43.2 µM	> 46.6 µM	3.13 µM	30.1 µM	16.4 µM	27.8 µM	25.2 µM	5.06 µM
COC(=O)CCC1=CCC2(SC)C(=O)Nc3cccc1c32 (stereo not given)	> 100 µM	> 100 µM	> 100 µM	> 100 µM	> 100 µM	> 100 µM	> 100 µM	> 100 µM	> 100 µM	> 100 µM
CCOC(=O)c1c(-c2ccc(OC)cc2)c(C#N)c(=S)n(C2OC(COC(C)=O)C(OC(C)=O)C(OC(C)=O)C2OC(C)=O)c1-c1ccccc1 (stereo not given)	> 100 µM	> 100 µM	> 100 µM	> 100 µM	> 100 µM	> 100 µM	> 100 µM	> 100 µM	> 100 µM	> 100 µM
CC(C)(Br)C(Br)CCC1(C2CO2)CO1 (stereo not given)	> 5 µM	> 5 µM	> 5 µM	> 5 µM	> 5 µM	> 5 µM	> 5 µM	> 5 µM	> 5 µM	> 5 µM
CCCn1c2ccccc2c2ccc3c(c21)C(=O)C=CC3=O	> 10 µM	5.08 µM	> 10 µM	> 10 µM	3.8 µM	> 8.03 µM	5.48 µM	> 10 µM	> 10 µM	5.4 µM
CC(=O)Nc1ccc(N2C(=O)/C(=C\c3cccc(Oc4ccccc4)c3)S(=O)(=O)C2c2ccccc2)cc1 (stereo not given)	> 100 µM	> 100 µM	> 100 µM	> 100 µM	> 100 µM	> 100 µM	> 100 µM	> 100 µM	> 100 µM	66.8 µM
Nc1ccc(-c2nc3cc(F)ccc3s2)cc1Cl	0.0255 µM	> 100 µM	55.4 µM	> 100 µM	> 78.9 µM	> 100 µM	> 100 µM	> 72.3 µM	52.6 µM	> 100 µM
Nc1ncnc2c1ccn2C/C=C\CO	> 100 µM	> 100 µM	> 100 µM	> 100 µM	> 100 µM	> 100 µM	> 100 µM	> 100 µM	> 100 µM	> 100 µM
CC1(c2cccs2)CC(c2cccs2)=C(C#N)C(=C(C#N)C#N)N1 (stereo not given)	31.1 µM	50.6 µM	31 µM	36.6 µM	30.8 µM	29.8 µM	32.7 µM	32.6 µM	37.1 µM	61.5 µM
C=C(CCC/C(C)=C/C=C/[C@]1(C)CCCc2ccoc21)CC(=O)O	> 100 µM	> 100 µM	> 100 µM	> 100 µM	> 100 µM	> 100 µM	> 100 µM	> 100 µM	> 100 µM	> 100 µM
COc1cc(C2SCC(=O)N2c2ccccn2)cc(OC)c1OC (stereo not given)	> 100 µM	> 100 µM	> 100 µM	> 100 µM	89.2 µM	> 100 µM	> 100 µM	> 100 µM	> 100 µM	> 100 µM
O=C(NC(Cc1c[nH]c2ccccc12)C(=O)Nc1ccc(Br)cc1)OCc1ccccc1 (stereo not given)	23.1 µM	22.9 µM	25.1 µM	90.8 µM	19.1 µM	24.5 µM	23.5 µM	23.9 µM	46.3 µM	34.2 µM
COc1ccccc1/C(=N\OCCC(=O)O)c1cccs1	> 100 µM	> 100 µM	> 100 µM	> 100 µM	> 100 µM	> 100 µM	> 100 µM	> 100 µM	> 100 µM	> 100 µM
OC1[C@@H]2[C@@H](O)[C@H](O)[C@@H](O)N2C[C@@H]1O (stereo not given in full)	> 100 µM	> 100 µM	> 100 µM	> 100 µM	> 100 µM	> 100 µM	> 100 µM	> 100 µM	> 100 µM	> 23.5 µM
OCC1OC(c2cccc3cc(O)c(O)cc23)CC1O (stereo not given)	> 100 µM	> 100 µM	> 100 µM	> 100 µM	> 100 µM	> 100 µM	> 100 µM	> 100 µM	> 100 µM	> 100 µM
